In patent publication US8530493B2, “Indolopyridines as Eg5 kinesin modulators” (4SC AG, priority 2006, dated 2013):

Tested on: RKO p21 uninduced (proliferating) colon adenocarcinoma cells
Assay: Alamar Blue cell viability assay, RKO p21 uninduced (proliferating)
Assay type: cell-based
Conditions: Homo sapiens, Table B3, anti-proliferative/cytotoxic activity, 72 hours, read-out: −log EC50 RKO p21 uninduced (proliferating) (converted)
Procedure: The anti-proliferative/cytotoxic activity of the compounds described herein can be tested on subclones of RKO human colon adenocarcinoma cells (Schmidt et al., Oncogene 19, 2423-2429; 2000) using the Alamar Blue cell viability assay (described in O'Brien et al. Eur J Biochem 267, 5421-5426, 2000). The compounds are dissolved as 10 mM solutions in DMSO and subsequently diluted in semi-logarithmic steps. DMSO dilutions are further diluted 1:100 into Dulbecco's modified Eagle's medium (DMEM) containing 10% fetal calf serum to a final concentration twice as much as the final concentration in the test. RKO subclones are seeded into 96 well flat bottom plates at a density of 4000 cells per well in a volume of 50 μl per well. 24 hours after seeding the 50 μl each of the compound dilutions in DMEM medium are added into each well of the 96 well plate. Each compound dilution is tested as triplicates. Wells containing untreated control cells are filled with 50 μl DMEM medium containing 1% DMSO. The cells are then incubated with the substances for 72 hours at 37° C. in a humidified atmosphere containing 5% carbon dioxide. To determine the viability of the cells, 10 μl of an Alamar Blue solution (Biosource) are added and the fluorescence is measured at an extinction of 544 nm and an emission of 590 nm. For the calculation of the cell viability the emission value from untreated cells is set as 100% viability and the emission rates of treated cells are set in relation to the values of untreated cells. Viabilities are expressed as % values. The Graphpad Prism program is used for the calculation of EC50 values for anti-proliferative/cytotoxic activity out of the obtained dose-response curves.
To determine the cell cycle specific mode of action, subclones of RKO colon adenocarcinoma cells (RKOp21 or RKOp27 as described by Schmidt et al. in Oncogene 19, 2423-2429; 2000) are seeded into 96 well flat bottom plates at a density of 16000 cells per well in a volume of 50 μl per well in DMEM growth medium with 10% FCS containing 10 μM Ponasterone A. 24 hours after seeding the 50 μl each of the compound dilutions in DMEM medium are added into each well of the 96-well plate. Each compound dilution is tested as triplicates. Wells containing untreated control cells are filled with 50 μl DMEM medium containing 1% DMSO. The cells are then incubated with the substances for 72 hours at 37° C. in a humidified atmosphere containing 5% carbon dioxide. To determine the viability of the cells, 10 μl of an Alamar Blue solution (Biosource) are added and the fluorescence is measured at an extinction of 544 nm and an emission of 590 nm. For the calculation of the cell viability the emission value from untreated cells is set as 100% viability and the emission rates of treated cells are set in relation to the values of untreated cells. Viabilities are expressed as % values. The Graphpad Prism program (GraphPad Software, Inc) is used for the calculation of EC50 values out of the obtained dose-response curves. Viability is compared of proliferating cells grown in the absence of the inducer Ponasterone A, versus viability of cells arrested by the expression of ectopic p27Kip1 induced by Ponasterone A.
Representative values for anti-proliferation/cytotoxicity [measured as −log EC50 (mol/l)] determined in the aforementioned assays follow from the following tables B1, B2 and B3, in which the numbers of the compounds correspond to the numbers of the examples.

SMILES	EC50
CC(=O)N1CCN(CCN2C(=O)N3[C@H](c4cccc(O)c4)c4[nH]c5cc(F)c(Cl)cc5c4C[C@@]3(C)C2=O)CC1 (racemic) [Example 360, (3aSR,10RS)-2-[2-(4-Acetyl-piperazin-1-yl)-ethyl]-6-chloro-7-fluoro-10-(3-hydroxy-phenyl)-3a-methyl-3a,4,9,10-tetrahydro-2,9,10a-triaza-cyclopenta[b]fluorene-1,3-dione]	39.8 to 251 nM
COc1ccc2[nH]c3c(c2c1)C[C@@]1(C)C(=O)N(CCCNCC(C)C)C(=O)N1[C@@H]3c1cccc(O)c1 [Example 534, (3aS,10R)-10-(3-Hydroxy-phenyl)-2-(3-isobutylamino-propyl)-6-methoxy-3a-methyl-3a,4,9,10-tetrahydro-2,9,10a-triaza-cyclopenta[b]fluorene-1,3-dione]	≤ 39.8 nM
CNCCCN1C(=O)N2[C@H](c3cccc(O)c3)c3[nH]c4ccc(Br)cc4c3C[C@@]2(C)C1=O (racemic) [Example 211, (3aSR,10RS)-6-Bromo-10-(3-hydroyx-phenyl)-3a-methyl-2-(3-methylamino-propyl)-3a,4,9,10-tetrahydro-2,9,10a-triaza-cyclopenta[b]fluorene-1,3-dione]	≤ 39.8 nM
CN1CCN(CCCN2C(=O)N3[C@H](c4cccc(O)c4)c4[nH]c5ccc(Cl)cc5c4C[C@@]3(C)C2=O)CC1 (racemic) [Example 175, (3aSR,10RS)-6-Chloro-10-(3-hydroxy-phenyl)-3a-methyl-2-[3-(4-methyl-piperazin-1-yl)-propyl]-3a,4,9,10-tetrahydro-2,9,10a-triaza-cyclopenta[b]fluorene-1,3-dione]	≤ 39.8 nM
COc1ccc2[nH]c3c(c2c1)C[C@@]1(C)C(=O)N(CCCN(C)C)C(=O)N1[C@@H]3c1cccc(O)c1 [Example 540, (3aS,10R)-2-(3-Dimethylamino-propyl)-10-(3-hydroxy-phenyl)-6-methoxy-3a-methyl-3a,4,9,10-tetrahydro-2,9,10a-triaza-cyclopenta[b]fluorene-1,3-dione]	≤ 39.8 nM
CCOc1ccc2[nH]c3c(c2c1)C[C@@]1(C)C(=O)N(CCN2CCC(C)CC2)C(=O)N1[C@@H]3c1cccc(O)c1 (racemic) [Example 302, (3aSR,10RS)-6-Ethoxy-10-(3-hydroxy-phenyl)-3a-methyl-2-[2-(4-methyl-piperidin-1-yl)-ethyl]-3a,4,9,10-tetrahydro-2,9,10a-triaza-cyclopenta[b]fluorene-1,3-dione]	39.8 to 251 nM
CCN(C)CCCN1C(=O)N2[C@H](c3cccc(O)c3)c3[nH]c4ccc(OC(F)F)cc4c3C[C@@]2(C)C1=O (racemic) [Example 247, (3aSR,10RS)-6-(1,1-Difluoro-methoxy)-2-[3-(ethyl-methyl-amino)-propyl]-10-(3-hydroxy-phenyl)-3a-methyl-3a,4,9,10-tetrahydro-2,9,10a-triaza-cyclopenta[b]fluorene-,3-dione]	≤ 39.8 nM
C[C@@]12Cc3c([nH]c4ccc(Br)cc34)[C@@H](c3cccc(O)c3)N1C(=O)N(CCCNC1CCC1)C2=O (racemic) [Example 369, (3aSR,10RS)-6-Bromo-2-(3-cyclobutylamino-propyl)-10-(3-hydroxy-phenyl)-3a-methyl-3a,4,9,10-tetrahydro-2,9,10a-triaza-cyclopenta[b]fluorene-1,3-dione]	≤ 39.8 nM
C[C@@]12Cc3c([nH]c4ccc(OC(F)F)cc34)[C@@H](c3cccc(O)c3)N1C(=O)N(CCCNCC1CC1)C2=O (racemic) [Example 200, (3aSR,10RS)-2-[3-(Cyclopropylmethyl-amino)-propyl]-6-(1,1-difluoro-methoxy)-10-(3-hydroxy-phenyl)-3a-methyl-3a,4,9,10-tetrahydro-2,9,10a-triaza-cyclopenta[b]fluorene-1,3-dione]	39.8 to 251 nM
C=CCNCCN1C(=O)N2[C@H](c3cccc(O)c3)c3[nH]c4ccc(OC(F)F)cc4c3C[C@@]2(C)C1=O (racemic) [Example 274, (3aSR,10RS)-2-(2-Allylamino-ethyl)-6-(1,1-difluoro-methoxy)-10-(3-hydroxy-phenyl)-3a-methyl-3a,4,9,10-tetrahydro-2,9,10a-triaza-cyclopenta[b]fluorene-1,3-dione]	≤ 39.8 nM
C[C@@]12Cc3c([nH]c4cc(F)c(Cl)cc34)[C@@H](c3cccc(O)c3)N1C(=O)N(CCN1CCCC1)C2=O (racemic) [Example 354, (3aSR,10RS)-6-Chloro-7-fluoro-10-(3-hydroxy-phenyl)-3a-methyl-2-(2-pyrrolidin-1-yl-ethyl)-3a,4,9,10-tetrahydro-2,9,10a-triaza-cyclopenta[b]fluorene-1,3-dione]	≤ 39.8 nM
CC(C)NCCCN1C(=O)N2[C@H](c3cccc(O)c3)c3[nH]c4ccc(Cl)cc4c3C[C@@]2(C)C1=O (racemic) [Example 392, (3aSR,10RS)-6-Chloro-10-(3-hydroxy-phenyl)-2-(3-isopropylamino-propyl)-3a-methyl-3a,4,9,10-tetrahydro-2,9,10a-triaza-cyclopenta[b]fluorene-1,3-dione]	≤ 39.8 nM
COc1cc2c3c([nH]c2cc1F)[C@@H](c1cccc(O)c1)N1C(=O)N(CCCN(C)C(C)C)C(=O)[C@]1(C)C3 (racemic) [Example 319, (3aSR,10RS)-7-Fluoro-10-(3-hydroxy-phenyl)-2-[3-(isopropyl-methyl-amino)-propyl]-6-methoxy-3a-methyl-3a,4,9,10-tetrahydro-2,9,10a-triaza-cyclopenta[b]fluorene-1,3-dione]	39.8 to 251 nM
C[C@@]12Cc3c([nH]c4ccc(Br)cc34)[C@@H](c3cccc(O)c3)N1C(=O)N(CCN1CCCCCC1)C2=O (racemic) [Example 396, (3aSR,10RS)-2-(2-Azepan-1-yl-ethyl)-6-bromo-10-(3-hydroxy-phenyl)-3a-methyl-3a,4,9,10-tetrahydro-2,9,10a-triaza-cyclopenta[b]fluorene-1,3-dione]	39.8 to 251 nM
CCNCCCN1C(=O)N2[C@H](c3cccc(O)c3)c3[nH]c4cc(F)c(OC)cc4c3C[C@@]2(C)C1=O (racemic) [Example 330, (3aSR,10RS)-2-(3-Ethylamino-propyl)-7-fluoro-10-(3-hydroxy-phenyl)-6-methoxy-3a-methyl-3a,4,9,10-tetrahydro-2,9,10a-triaza-cyclopenta[b]fluorene-1,3-dione]	39.8 to 251 nM
COc1ccc2[nH]c3c(c2c1)C[C@@]1(C)C(=O)N(CCCNCCO)C(=O)N1[C@@H]3c1cccc(O)c1 [Example 536, (3aS,10R)-2-[3-(2-Hydroxy-ethylamino)-propyl]-10-(3-hydroxy-phenyl)-6-methoxy-3a-methyl-3a,4,9,10-tetrahydro-2,9,10a-triaza-cyclopenta[b]fluorene-1,3-dione]	≤ 39.8 nM
C=CCN(C)CCCN1C(=O)N2[C@H](c3cccc(O)c3)c3[nH]c4ccc(OC(F)F)cc4c3C[C@@]2(C)C1=O (racemic) [Example 184, (3aSR,10RS)-2-[3-(Allyl-methyl-amino)-propyl]-6-(1,1-difluoro-methoxy)-10-(3-hydroxy-phenyl)-3a-methyl-3a,4,9,10-tetrahydro-2,9,10a-triaza-cyclopenta[b]fluorene-1,3-dione]	39.8 to 251 nM
C[C@@]12Cc3c([nH]c4ccc(Br)cc34)[C@@H](c3cccc(O)c3)N1C(=O)N(CCCNC1CC1)C2=O (racemic) [Example 215, (3aSR,10RS)-6-Bromo-2-(3-cyclopropylamino-propyl)-10-(3-hydroxy-phenyl)-3a-methyl-3a,4,9,10-tetrahydro-2,9,10a-triaza-cyclopenta[b]fluorene-1,3-dione]	≤ 39.8 nM
CCNCCN1C(=O)N2[C@H](c3cccc(O)c3)c3[nH]c4ccc(Br)cc4c3C[C@@]2(C)C1=O (racemic) [Example 393, (3aSR,10RS)-6-Bromo-2-(2-ethylamino-ethyl)-10-(3-hydroxy-phenyl)-3a-methyl-3a,4,9,10-tetrahydro-2,9,10a-triaza-cyclopenta[b]fluorene-1,3-dione]	≤ 39.8 nM
